Results reported in article PMC2151509 (The Journal of General Physiology, 2006).
Changes are numbered by the printed parent chain.

Tests used:
[1] = biological target: T1, rat olfactory CNGA2 channel (homomeric) (Rattus norvegicus, UniProt Q00195, E342K); test: inside-out patch clamp, cGMP-activated current, Hill fit; assay type: cell-based
T1 sequence (Q00195 1-664 E342K): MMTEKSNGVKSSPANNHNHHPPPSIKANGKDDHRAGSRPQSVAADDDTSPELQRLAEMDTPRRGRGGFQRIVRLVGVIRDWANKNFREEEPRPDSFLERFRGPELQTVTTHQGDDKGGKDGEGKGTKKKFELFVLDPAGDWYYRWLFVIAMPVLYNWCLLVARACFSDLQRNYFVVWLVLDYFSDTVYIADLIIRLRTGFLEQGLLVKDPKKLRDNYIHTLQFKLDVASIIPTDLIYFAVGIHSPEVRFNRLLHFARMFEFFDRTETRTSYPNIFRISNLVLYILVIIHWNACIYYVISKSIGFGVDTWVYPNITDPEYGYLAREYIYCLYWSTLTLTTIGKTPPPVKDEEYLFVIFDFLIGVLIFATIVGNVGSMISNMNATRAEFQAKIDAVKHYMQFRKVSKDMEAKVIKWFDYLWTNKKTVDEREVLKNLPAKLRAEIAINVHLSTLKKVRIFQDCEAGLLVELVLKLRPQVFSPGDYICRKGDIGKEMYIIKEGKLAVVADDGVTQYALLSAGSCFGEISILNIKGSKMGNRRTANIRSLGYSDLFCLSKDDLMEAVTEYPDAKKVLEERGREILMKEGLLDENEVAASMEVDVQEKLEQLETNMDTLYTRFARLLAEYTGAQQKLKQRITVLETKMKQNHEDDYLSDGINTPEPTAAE

[2] = biological target: T2, rat olfactory CNGA2 channel (homomeric) (Rattus norvegicus, UniProt Q00195); test: inside-out patch clamp, cGMP-activated current; assay type: biochemical; settings: agonist; 5 mM cGMP; 145 mM NaCl, pH 7.4, 21 °C
T2 sequence (Q00195 1-664): T1 sequence (Q00195 1-664 E342K) with K342E

What does the source list for Nc1nc2c(ncn2[C@@H]2O[C@@H]3COP(=O)(O)O[C@H]3[C@H]2O)c(=O)[nH]1 [cGMP]?
EC50 [1]: 8.6 ± 1.2 µM; inside-out patch clamp, cGMP-activated current [2]: Macroscopic cGMP-activated currents in different NaCl dilutions in one inside-out patch with WT CNG channels
